Reference: US20110212100A1, “METHODS FOR MODULATING DEVELOPMENT AND EXPANSION OF IL-17 EXPRESSING CELLS” (priority 2007, published 2011)

Legend:
[1] = test system: Asns, Gpt2, eIF4Ebp1 mRNA; assay: Quantitative real-time PCR of AAR-associated genes in T cells; assay type: cell-based, mouse; conditions: 10 nM HF, within 4 hours of T cell activation
Experimental: FIG. 12C is a graph depicting the results of quantitative real-time PCR performed on cDNA generated from resting naïve T cells (TN) or T cells activated for 4 hours in the presence of 10 nM MAZ1310 or 10 nM HF. Asns, Gpt2 or eIF4Ebp1 mRNA expression was normalized to Hprt levels and data are presented as mean values±SD in duplicate samples.
Quantitative real-time PCR: T cells were activated as described above, collected at the indicated times and pellets were flash-frozen in liquid nitrogen. Total RNA was obtained by RNeasy (Quiagen, Valencia, Calif.) column purification per manufacturers instructions. RORγt expression was determined after reverse transcription using the message sensor kit (Ambion, Austin, Tex.) per manufacturers instructions and taqman primers and probe as described elsewhere (I. Ivanov, et al., Cell 126, 1121, 2006). Sybrgreen quantitative real-time PCR was performed on T cell RNA samples following reverse transcription via SuperScript II first-strand cDNA synthesis kit (Invitrogen, Carlsbad, Calif.). All PCR data was collected on an iCycler thermal cycler (Biorad, Hercules, Calif.). Primer sequences used for detecting stress response genes are listed below.

CD4+ CD25− T cells = assay: CD4+ T cell proliferation, CD25 upregulation, cytokine production and Th1/Th2/iTreg differentiation; assay type: cell-based, mouse
Experimental: The dose-response of HF on CD4+ T cell proliferation, activation (i.e. CD25 upregulation) and differentiation to Th1, Th2 and Th17 lineages were evaluated. Purified murine naïve CD4+ CD25− T cells were activated using anti-CD3 (0.3 μg/ml) and anti-CD28 (0.5 μg/ml) antibodies and varying amounts of HF was added to each T cell culture condition (1.25 nM-40 nM). CD4+ T cell proliferation was monitored by CFSE dilution on day 3-post activation and CD25 expression was evaluated by FACS staining 2 days after activation. For T cell differentiation experiments, naïve T cells were activated as above in the presence of Th1 (IL-12 (20 ng/ml) plus anti-IL-4 (10 μg/ml)), Th2 (IL-4 (50 ng/ml) plus anti-IFNγ (0.5 mg/ml)) or Th17 (TGFβ (3 ng/ml) plus IL-6 (30 ng/ml)) polarizing conditions plus titrating amounts of HF (1.25 nM-40 nM) or MAZ1310 (40 nM). The percentage of Th17 cells, (IL-17^+ IFNγ^−) was evaluated on day 3 following activation, whereas the abundance of Th1 cells (IFNγ^+ IL-4) and Th2 cells (IL-4^+ IFNγ^−) was determined 5 days following activation. All cytokine expression was determined by intracellular staining following PMA+Ionomycin+Brefeldin A re-stimulation and all data was normalized to control (MAZ1310)-treated cells. […] Biol., vol. 80:1-8 (2006).
Cytokines, antibodies and T cell culture: Purified CD4^+ CD25^− T cells were activated in vitro as previously described (I. M. Djuretic et al., Nat Immunol 8, 145 (2007)) using 0.3 μg/ml hamster anti-mouse CD3 (clone 145-2C11) (ATCC—Manassas, Va.) and 0.5 μg/ml hamster anti-mouse CD28 (BD Pharmingen, San Jose, Calif.). Activated cell cultures were differentiated using the following combinations of cytokines and antibodies: iTreg=recombinant human TGFβ1 (3 ng/ml; R&D systems, Minneapolis, Minn.), Th17βTGFβ1 (3 ng/ml) plus recombinant mouse IL-6 (30 ng/ml, R&D systems). Th1 and Th2 differentiation was performed as previously described. (I. M. Djuretic et al., Nat Immunol 8, 145 (2007)). Human IL-2 supernatant (National Cancer Institute) was used in culture at 0.01 U/ml and was added at 48 hours-post activation when T cells were split into tissue culture wells lacking CD3 and CD28 antibodies, with the exception of Th17 cultures that were maintained in the absence of IL-2. All reagents were added at the time of T cell activation and again at 48-hours post activation unless indicated otherwise. For some experiments, purified CD4^+ CD25^− T cells, CD8^+ T cells or B cells were labeled with 1 μM CFSE (Invitrogen) prior to activation in accordance with manufacturers instructions.
Detection of cytokine production: Cytokines secreted into media supernatant were measured using the mouse Th1/Th2 cytometric bead array (CBA, BD Pharmingen) in accordance with manufacturers instructions. […]

mice = conditions: IP, cited from earlier work

Compound: O=C(CC1NCCCC1O)Cn1cnc2cc(Br)c(Cl)cc2c1=O (racemic) [HF, 7-bromo-6-chloro-3-[3-(3-hydroxy-2-piperidinyl)-2-oxopropyl]-4(3H)-quinazolinone]
- Asns, Gpt2, eIF4Ebp1 mRNA (qPCR), in words [1]: induced
- concentration inducing general inhibition of T and B cell activation, proliferation and effector function (CD4+ CD25− T cells; CD4+ T cell, CD8+ T cell and B220+ B cell, listed as halofuginone): 20 to 40 nM
- effect on T cell proliferation, CD25 upregulation or production of IL-2, TNF or IFNγ, in words (CD4+ CD25− T cells; low concentrations of HF (1-10 nM)): did not affect
- effect on Th1, Th2 or iTreg differentiation (IFNγ, IL-4 or Foxp3 expression), in words (CD4+ CD25− T cells; low-dose HF): failed to modulate
- radiation induced fibrosis, in words (mice; 1-5 μg/mouse (Xavier et al.)): prevented radiation induced fibrosis but not normal healing of irradiated tissue
- toxic effect in mice, in words (mice; 1-5 μg/mouse): without evident toxic effect
